According to publication PMC5984089, “FBXW7 regulates DISC1 stability via the ubiquitin-proteosome system” (Molecular Psychiatry, 2017):
Residues, ends and D or L forms follow the SMILES beside them. *: point of attachment. Cbz = O=C(OCc1ccccc1)*

Tested on: DISC1, HEK293 cells
Assay: Endogenous DISC1 protein level in HEK293 cells, western blot
Assay type: cell-based, human
Settings: MG132 10–60 μM, 1 h, Figure 1b
Protocol: HEK293 cells were sourced from ATCC (CRL-1573) and cultured as described in the manufacturer’s protocol. DMEM (SIGMA) supplemented with 10% fetal bovine serum, 2 mM L-glutamine, […] penicillin-streptomycin at 37 °C in a humidified atmosphere of 5% CO2. The cells were passaged at about 80% confluency. Cells were transfected with plasmid DNA using polyfect transfection reagent (Qiagen) according to the manufacturer’s instructions. HEK293 cells were treated with the pharmacological agents cycloheximide (C7698) and MG132 (M7449) (Sigma-Aldrich) or DISC1 disruptor peptides (custom synthesized by Severn Biotech) as described in the text.
Briefly, detergent-soluble proteins were isolated from cells by disruption in lysis buffer 20 mM Tris-HCl (pH 7.5), 150 mM NaCl, 1 mM Na2EDTA, 1 mM EGTA, 1% triton, 2.5 mM sodium pyrophosphate, 1 mM β-glycerophosphate, 1 mM Na3VO4, 1 μg ml^–1 leupeptin, 10 mM DTT with Roche protease inhibitor, phosSTOP (Roche, 04906837001). Detergent-insoluble proteins were removed by centrifugation at 10 000 g for 10 min, and the soluble fraction was retained. Cell lysates were adjusted to equal protein amount (1 μg μl^–1) using cell lysis buffer. Cell lysates normalized for the protein concentration were incubated with mouse IgG (Millipore, 12487) Protein A agarose beads for 2 h at 4 °C. […] The complexes were analyzed on SDS PAGE. […]

CC(C)C[C@@H](C=O)NC(=O)[C@H](CC(C)C)NC(=O)[C@H](CC(C)C)NC(=O)OCc1ccccc1 [MG132] (Cbz-Leu-Leu-Leu-aldehyde)
endogenous DISC1 level after MG132: elevated
